How the values were obtained:
HTT pre-mRNA intron 49 = experiment: Ampliseq Junction Expression Index (JEI) of HTT introns in GM04856 cells; format: cell-based, human; settings: 125 nM, 24 h, vs DMSO, P<0.05
Experimental: Targeted next-generation sequencing Novel splicing events originating from HTT pre-mRNA upon compound treatment were further analyzed using AmpliSeq technology. The GM04856 cells were plated in 6-well plates at 500,000 cells/well in 2000 μl DMEM/10% FBS and incubated for 6 hours in a cell culture incubator (37° C., 5% CO2, 100% relative humidity). Cells were then treated in triplicate with HTT-C1 at 125 nM (in 0.5% DMSO) for 24 hours. Following treatment, RNA was purified using an RNeasy Mini Kit (Qiagen) according to the manufacturer's protocol. Novel splice variants induced by the HTT-C1 compound were detected using Ion AmpliSeq technology (Life Technologies), a PCR-based target enrichment and next-generation sequencing platform. PCR enrichment of HTT exon targets was accomplished by applying a custom HTT AmpliSeq panel. The panel consisted of two separate PCR primer pools, each producing 33 amplicons. […]
For data analysis, Ampliseq reads (Fastq format) were mapped to human genome (hg19) using tophat2 which allowed identification of both known and novel splice junctions. For each one of the 66 introns of HTT gene, a Junction Expression Index (JEI) was calculated using the percent of reads supporting the splicing of the exact annotated intron among all reads supporting the splicing isoforms using either the 5′ splice or/and 3′ splice site of that intron (FIG. 3B). […]

[1] = Oral pharmacokinetics in WT littermates of the BACHD colony; format: in vivo, mouse; settings: single oral dose of 10 mg/kg
Experimental: Oral pharmacokinetics (PK) of compounds was evaluated in WT littermates from the BACHD colony (FVB background). Mice were treated with test compounds (10 mg/kg) by oral gavage in 0.5% hydroxypropylmethyl cellulose (HPMC) with 0.1% Tween 80. Blood was collected by terminal cardiac puncture at specified time points (3 mice per time point) and centrifuged to generate plasma. Brain tissue was collected at the time of blood collection and homogenized in water. Protein was precipitated from plasma and brain homogenates with acetonitrile, methanol mixture (5:1, v:v) containing an internal standard that is a close analog of the test compounds. The mixture was filtered through an EMD Millipore MultiScreen™ Solvinert Filter Plate (MSRLN04, Millipore, Burlington, Mass.). Calibration standards were prepared in the same matrix and processed with the testing samples. Filtrates were analysed using Acquity ultra performance liquid chromatography (UPLC) system (Waters Corporation) tandem with Xevo TQ-s Spectrometer (Waters Corporation). Samples were injected on to a Waters UPLC Acquity BEH C18 Column (2.1*50 mm, 1.7 μm) maintained at 50° C. The injection volume was 3 μL and the mobile phase flow rate was 0.45 mL/min. The mobile phase consisted of 2 solvents: A) 0.1% formic acid in water and B) 0.1% formic acid in acetonitrile. […]

[2] = tested on: human HTT intron 49 minigene; experiment: Human HTT intron 49 minigene splicing in transfected HEK293 cells (endpoint PCR); format: cell-based; settings: 10 nM, 100 nM, 1 μM, 24 h
Experimental: To identify potential sequence elements, human, mouse, and hybrid mouse/human HTT intron 49 minigene constructs were generated (FIG. 7A,7Bi-xii, 7Di-viii and 7Ei-vi). HEK293 cells transfected with the minigene constructs were treated with varying concentrations of test compounds in a final concentration 0.05% DMSO and incubated for 24 hours. Total RNA was isolated from the cells using the RNeasy plus mini kit (Qiagen) and RNA concentration and quality were assessed using a NanoDrop spectrophotometer (Thermo Fisher Scientific). cDNA was synthesized using an iScript™ cDNA synthesis kit (Bio-rad Laboratories) according to the manufacturer's instructions. Endpoint PCRs were set up using Platinum™ PCR SuperMix High Fidelity (Invitrogen) and the resulting PCR products separated on 2% eGels (Invitrogen). Primers were directed against common sequences in the minigene constructs: […]

Row | plasma exposure [1] | SMILES | reduction of junction expression index (JEI) in intron 49 (HTT pre-mRNA intron 49) | compound-induced splicing of minigene [2]
1 | – | CC1(C)CC(Oc2ccc(-c3ccc(-c4ccnc(O)c4)cc3O)nn2)CC(C)(C)N1 [HTT-C1] | > 25% | –
2 | superior exposure to HTT-C1 | CC1(C)CC(Oc2ccc(-c3ccc(-c4cn[nH]c4)cc3O)nn2)CC(C)(C)N1 [HTT-C2] | – | responded in a dose dependent manner
